Reference: ChEMBL document CHEMBL1201862, “PubChem BioAssay data set” (2004)
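Growth conditions: 96-well plates. Treatment: test compound, 48 hours, 5 concentrations. Analysis: linear interpolation between bracketing concentrations; unreached endpoints set to highest concentration. GI50: concentration for 50% inhibition of growth.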 The source made the active and inactive calls. Cut-off read from the data, not from the text of the source: active = GI50 up to about 1.1 µM and inactive = higher.

How the values were obtained:
Assay in all cases: inhibition of tumour cell growth, NCI panel, 48 h
NCI-H226 = tested on: NCI-H226
MDA-MB-435 = tested on: MDA-MB-435
COLO 205 = tested on: COLO 205
TK-10 = tested on: TK-10
SR = tested on: SR
KM12 = tested on: KM12
NCI/ADR-RES = tested on: NCI/ADR-RES
UACC-62 = tested on: UACC-62
NCI-H460 = tested on: NCI-H460
SF-539 = tested on: SF-539
OVCAR-4 = tested on: OVCAR-4
A549 = tested on: A549
HT-29 = tested on: HT-29
T47D = tested on: T47D
EKVX = tested on: EKVX
OVCAR-8 = tested on: OVCAR-8
RPMI-8226 = tested on: RPMI-8226
UO-31 = tested on: UO-31
HL-60 = tested on: HL-60
CCRF-CEM = tested on: CCRF-CEM

Measured: GI50

O=C(C#Cc1cn(C2CC(O)C(CO)O2)c(=O)[nH]c1=O)c1ccccc1 (configuration not stated)
inactive: NCI-H226 70 µM | MDA-MB-435 58.9 µM | COLO 205 28.6 µM | TK-10 > 100 µM | SR 24.8 µM | KM12 > 100 µM | NCI/ADR-RES 32.6 µM | UACC-62 > 100 µM | NCI-H460 > 100 µM | SF-539 23.2 µM | OVCAR-4 51.4 µM | A549 > 100 µM | HT-29 > 100 µM | T47D 19.5 µM | EKVX > 100 µM | OVCAR-8 > 100 µM | RPMI-8226 44 µM | UO-31 > 100 µM

COc1ccc(OCc2ccc3nc(-c4ccccc4)c(Cl)nc3c2)cc1
inactive: MDA-MB-435 50.6 µM | COLO 205 16.6 µM | TK-10 17.7 µM | HL-60 12.3 µM | SR 28.2 µM | KM12 > 100 µM | NCI/ADR-RES 40.3 µM | UACC-62 > 10 µM | NCI-H460 16.7 µM | SF-539 12.9 µM | OVCAR-4 19.4 µM | A549 40 µM | HT-29 76.7 µM | T47D 45 µM | EKVX 50.5 µM | OVCAR-8 44.7 µM | RPMI-8226 9.93 µM | UO-31 62.8 µM | CCRF-CEM 15.8 µM

COc1cc2nc(-c3c(F)cccc3F)n(Cc3c(F)cccc3F)c2cc1Cc1c(F)cccc1F
inactive: NCI-H226 > 28.6 µM | MDA-MB-435 8.59 µM | COLO 205 > 100 µM | TK-10 > 100 µM | SR > 20.4 µM | KM12 3.77 µM | NCI/ADR-RES > 100 µM | UACC-62 2.64 µM | NCI-H460 15.3 µM | SF-539 > 68.7 µM | OVCAR-4 1.84 µM | A549 > 47.8 µM | HT-29 3.53 µM | T47D 4.05 µM | EKVX 16.9 µM | OVCAR-8 > 100 µM | RPMI-8226 7.71 µM | UO-31 9.1 µM | CCRF-CEM > 100 µM

COc1cc(Nc2cnc3cc(F)c(F)cc3n2)cc(OC)c1
inactive: NCI-H226 > 100 µM | MDA-MB-435 > 100 µM | COLO 205 > 100 µM | TK-10 > 100 µM | HL-60 > 100 µM | SR > 100 µM | KM12 > 100 µM | NCI/ADR-RES 90.4 µM | UACC-62 18.2 µM | NCI-H460 > 100 µM | SF-539 71 µM | OVCAR-4 > 100 µM | A549 > 100 µM | HT-29 > 100 µM | T47D > 100 µM | EKVX > 100 µM | OVCAR-8 > 100 µM | UO-31 > 100 µM | CCRF-CEM > 100 µM

COc1ccc(C2CC(c3ccc4ccccc4c3O)=NN2)cc1OC (configuration not stated)
inactive: NCI-H226 > 100 µM | MDA-MB-435 27 µM | COLO 205 38.7 µM | TK-10 95.1 µM | SR 15.6 µM | KM12 48.4 µM | NCI/ADR-RES 32.7 µM | UACC-62 42.4 µM | NCI-H460 34.6 µM | SF-539 31.3 µM | OVCAR-4 92.7 µM | A549 38 µM | HT-29 47.5 µM | T47D 45 µM | OVCAR-8 43.6 µM | RPMI-8226 30.4 µM | UO-31 46.2 µM | CCRF-CEM 14.9 µM

COc1ccc2[nH]cc(C=C3C(=O)NC(=S)NC3=O)c2c1
inactive: NCI-H226 > 100 µM | MDA-MB-435 > 100 µM | COLO 205 > 100 µM | TK-10 38.9 µM | HL-60 > 100 µM | SR 30.1 µM | KM12 > 100 µM | NCI/ADR-RES > 100 µM | UACC-62 > 100 µM | NCI-H460 > 100 µM | SF-539 > 100 µM | OVCAR-4 > 100 µM | A549 > 100 µM | HT-29 > 100 µM | T47D > 100 µM | EKVX > 100 µM | OVCAR-8 36.6 µM | UO-31 > 100 µM | CCRF-CEM 71.8 µM
